Data published in US10441663B2, “Methods for treating cancer” (Bicycle Therapeutics Limited, priority 2016, dated 2019).
*1 amine or outer side, *2 acyl side, *3 side chain or, on linkers, in order; H or OH if unused. Where a SMILES comes first, the peptide text is derived from it. Bridges are numbered along the chain shown (N, C = ends). [ ]: non-standard residue; d: D form. The star is where a group is joined. X1 = COc1cc2cc(c1Cl)N(C)C(=O)C[C@H](OC(=O)[C@H](C)N(C)C(=O)CCSSC(C)CCC(=O)*)[C@]1(C)O[C@H]1[C@H](C)[C@@H]1C[C@@](O)(NC(=O)O1)[C@H](OC)/C=C/C=C(\C)C2; 1Nal = N[C@@H](Cc1cccc2ccccc12)C(=O)O; TBMB = c1c(C[*:1])cc(C[*:3])cc1C[*:2]; Tle = CC(C)(C)[C@H](N)C(=O)O; βAla = NCCC(=O)O; Sar = CNCC(=O)O

System: 3LL syngeneic model
Assay: In vivo efficacy of BT1718 in 3LL syngeneic model (Example 9)
Set-up: species or system Mus Musculus
Procedure: The objective of this study was to evaluate the in vivo anti-tumor efficacy of BT1718 in the treatment of the subcutaneous 3LL syngeneic model in C57BL/6 mice.
The 3LL tumor cells were maintained in vitro as a monolayer culture in medium supplemented with 10% heat inactivated fetal bovine serum at 37° C. in an atmosphere of 5% CO2 in air. The tumor cells were routinely subcultured twice weekly by trypsin-EDTA treatment. The cells growing in an exponential growth phase were harvested and counted for tumor inoculation.
Each mouse was inoculated subcutaneously at the right flank with 3LL tumor cells (1×106) in 0.1 ml of PBS for tumor development. The animals were randomized and treatment was started when the average tumor volume reaches approximately 105 mm^3 for the efficacy study. The test article administration and the animal numbers in each group were shown in the experimental design table (Table 48).
All the procedures related to animal handling, care and the treatment in the study were performed according to the guidelines of the Association for Assessment and Accreditation of Laboratory Animal Care (AAALAC). At the time of routine monitoring, the animals were daily checked for any effects of tumor growth and treatments on normal behavior such as mobility, food and water consumption (by looking only), body weight gain/loss (body weights were measured every day), eye/hair matting and any other abnormal effect as stated in the protocol. Death and observed clinical signs were recorded on the basis of the numbers of animals within each subset.
The major endpoint was to see if the tumor growth could be delayed or mice could be cured. Tumor size was measured three times weekly in two dimensions using a caliper, and the volume was expressed in mm^3 using the formula: V=0.5 a×b2 where a and b are the long and short diameters of the tumor, respectively. The tumor size was then used for calculations of T/C value. The T/C value (in percent) is an indication of antitumor effectiveness; T and C are the mean volumes of the treated and control groups, respectively, on a given day.
TGI was calculated for each group using the formula: TGI (%)=[1−(Ti−T0)/(Vi−V0)]×100; Ti is the average tumor volume of a treatment group on a given day, T0 is the average tumor volume of the treatment group on the day of treatment start, Vi is the average tumor volume of the vehicle control group on the same day with Ti, and V0 is the average tumor volume of the vehicle group on the day of treatment start.
Summary statistics, including mean and the standard error of the mean (SEM), are provided for the tumor volume of each group at each time point.
Statistical analysis of difference in tumor volume among the groups was conducted on the data obtained at the best therapeutic time point after the final dose.
A one-way ANOVA was performed to compare tumor volume among groups, and when a significant F-statistics (a ratio of treatment variance to the error variance) was obtained, comparisons between groups were carried out with Games-Howell test. All data were analyzed using Prism. P<0.05 was considered to be statistically significant.

With `COc1cc2cc(c1Cl)N(C)C(=O)C[C@H](OC(=O)[C@H](C)N(C)C(=O)CCSSC(C)CCC(=O)NCCC(=O)N(C)CC(=O)N(C)CC(=O)N(C)CC(=O)N(C)CC(=O)N(C)CC(=O)N(C)CC(=O)N(C)CC(=O)N(C)CC(=O)N(C)CC(=O)N(C)CC(=O)N[C@@H](C)C(=O)N[C@H]1CSCc3cc4cc(c3)CSC[C@H](NC(=O)[C@@H](C)NC(=O)[C@H](Cc3cccc5ccccc35)NC(=O)[C@H](CCC(=O)O)NC(=O)[C@H](CC(N)=O)NC(=O)[C@@H](C)NC1=O)C(=O)N[C@@H](CCC(=O)O)C(=O)N[C@@H](CC(=O)O)C(=O)N[C@@H](Cc1ccccc1)C(=O)N[C@@H](Cc1ccc(O)cc1)C(=O)N[C@@H](CC(=O)O)C(=O)N[C@@H](C(C)(C)C)C(=O)N[C@H](C(N)=O)CSC4)[C@]1(C)O[C@H]1[C@H](C)[C@@H]1C[C@@](O)(NC(=O)O1)[C@H](OC)/C=C/C=C(\C)C2` (stereo partly shown) [BT1718] ({X1-βAla}-[Sar][Sar][Sar][Sar][Sar][Sar][Sar][Sar][Sar][Sar]AC[dA]NE[1Nal][dA]CEDFYD[Tle]C-NH2; linker 12-18-25 via TBMB (inferred)) as the compound, how does the TGI (1 mg/kg, day 14) read?
The TGI was 104.9%.

What about the Tumor Volume (1 mg/kg, day 14) of the same compound?
Its Tumor Volume is 2649 mm^3.

What about the TGI (3 mg/kg, day 14) of the same compound?
Its TGI is 69.9%.

What about the Tumor Volume (3 mg/kg, day 14) of the same compound?
The Tumor Volume was 1764 mm^3.

And the TGI (10 mg/kg, day 14)?
Its TGI is 89.9.

And the Tumor Volume (10 mg/kg, day 14)?
The Tumor Volume was 350 mm^3.

And the “tumor volume trace over time” value (1 mpk biw, day 0)?
Its value is 106 ± 10 mm^3.

What about the “tumor volume trace over time” value (1 mpk biw, day 2) of the same compound?
The value was 239 ± 47 mm^3.

What about the “tumor volume trace over time” value (1 mpk biw, day 4) of the same compound?
The value was 405 ± 98 mm^3.

What about the “tumor volume trace over time” value (1 mpk biw, day 7) of the same compound?
Its value is 765 ± 190 mm^3.

And the “tumor volume trace over time” value (1 mpk biw, day 9)?
The value was 1120 ± 267 mm^3.

And the “tumor volume trace over time” value (1 mpk biw, day 11)?
Its value is 1568 ± 392 mm^3.

And the T/C (1 mpk biw, day 14)?
The T/C was 104.9%.

And the TGI (1 mpk biw, day 14)?
The TGI was −5.1%.

What about the “tumor volume trace over time” value (1 mpk biw, day 14) of the same compound?
Its value is 2649 ± 553 mm^3.

What about the “Tumor Volume” value (1 mpk, biw, day 14, Mean ± SEM) of the same compound?
Its value is 2649 ± 553 mm^3.

What about the “tumor volume trace over time” value (3 mpk biw, day 0) of the same compound?
Its value is 105 ± 9 mm^3.

And the “tumor volume trace over time” value (3 mpk biw, day 2)?
The value was 234 ± 48 mm^3.

And the “tumor volume trace over time” value (3 mpk biw, day 4)?
Its value is 423 ± 86 mm^3.

And the “tumor volume trace over time” value (3 mpk biw, day 7)?
The value was 706 ± 152 mm^3.

And the “tumor volume trace over time” value (3 mpk biw, day 9)?
Its value is 991 ± 245 mm^3.

What about the “tumor volume trace over time” value (3 mpk biw, day 11) of the same compound?
The value was 1149 ± 313 mm^3.

And the T/C (3 mpk biw, day 14)?
The T/C was 69.9%.

What about the TGI (3 mpk biw, day 14) of the same compound?
The TGI was 31.4%.

What about the “tumor volume trace over time” value (3 mpk biw, day 14) of the same compound?
Its value is 1764 ± 471 mm^3.

What about the “Tumor Volume” value (3 mpk, biw, day 14, Mean ± SEM) of the same compound?
The value was 1764 ± 471 mm^3.

What about the “tumor volume trace over time” value (10 mpk biw, day 0) of the same compound?
Its value is 106 ± 8 mm^3.

What about the “tumor volume trace over time” value (10 mpk biw, day 2) of the same compound?
Its value is 181 ± 21 mm^3.

And the “tumor volume trace over time” value (10 mpk biw, day 4)?
Its value is 272 ± 38 mm^3.

What about the “tumor volume trace over time” value (10 mpk biw, day 7) of the same compound?
Its value is 339 ± 86 mm^3.

And the “tumor volume trace over time” value (10 mpk biw, day 9)?
Its value is 321 ± 85 mm^3.

What about the “tumor volume trace over time” value (10 mpk biw, day 11) of the same compound?
Its value is 343 ± 92 mm^3.

And the T/C (10 mpk biw, day 14)?
Its T/C is 13.8%.

What about the TGI (10 mpk biw, day 14) of the same compound?
Its TGI is 89.9%.

And the “tumor volume trace over time” value (10 mpk biw, day 14)?
Its value is 350 ± 105 mm^3.

What about the “Tumor Volume” value (10 mpk, biw, day 14, Mean ± SEM) of the same compound?
The value was 350 ± 105 mm^3.

What about the body weight effect (all mice) of the same compound?
The body weight effect was “maintained their bodyweight well”.
